# Experimental data published in patent US4431807A, “4-Methyl-5-(unsubstituted and substituted phenoxy)-6-methoxy-8-(aminoalkylamino)quinolines” (priority 1981, dated 1984).
# Assays:
# P. cynomolgi = assay: Combination drug therapy including chloroquine as suppressive adjuvant, radical curative studies; type: in vivo, P. cynomolgi in rhesus monkeys; conditions: for Activity at 3.5 mg/kg (×1): primaquine with chloroquine, compound 1 without chloroquine; for Fully curative dose level: single dose, with chloroquine
# Plasmodium berghei = assay: Blood schizonticidal (suppressive) test, Rane mouse test, P. berghei; type: in vivo, Plasmodium berghei KBG 173 in ICR/HA Swiss mice
# Excerpt: Blood Schizonticidal Test (Mouse), University of Miami, Rane (Suppressive)
# This system is based on comparisons of responses to test compounds by Plasmodium berghei KBG 173 malaria in mice as expressed in mean survival times and the mean survival times of untreated controls. Thus, compounds noted as active produce increases in the survival times of the treated animals that are significant when compared with the survival times of untreated controls. Since an established disease is less sensitive to treatment than a disease in the early stages of development, treatment is withheld until the parasitemia is relatively high in order to insure a more reliable assay of activity and the selection of appropriate compounds for intensive preclinical studies.
# Utilizing young ICR/HA Swiss mice and a standard inoculum of Plasmodium berghei KBG 173, it is possible to produce a uniform disease fatal to 100% of untreated animals within 6 to 8 days with a mean survival time of 6.2 days. Test animals weigh from 18 to 22 grams but weight variations in any given experimental or control group are confined to 2-3 grams. All animals in any given test are approximately of the same age. Animals on test are housed in metal-topped plastic cages, given a standard laboratory diet and water ad libitum.
# Test animals receive an intraperitoneal injection of 0.5 ml of 1:100 dilution of heparinized heart's blood with a minimum of 90% parasitized cells (4×10^7 cells), drawn from donor mice infected one week earlier with Plasmodium berghei. The donor stran is maintained by weekly passages in separate groups of mice inoculated with a 0.5 ml of 1:500 dilution of heparinized heart's blood.
# Test compounds are administered after dissolution or suspension in peanut oil. A single dose is given subcutaneously 72 hours after the mice are infected with Plasmodium berghei. At this time a 10-15 percent parasitemia has developed; the disease is well established but has not produced sufficient debility to alter the response of the host to toxic effects of the drug on test. Since treatment is withheld for three days to permit the infection to become well established and death occurs in untreated controls within 6-8 days, it is believed that this system presents a candidate compound with the maximum challenge. In order to check factors such as changes in the infectivity of Plasmodium berghei or in the susceptibility of the host or to detect technical errors, a group of infected animals treated with pyrimethamine at dose levels producing definite increases in survival time is included as a positive control in every experiment.
# In each experiment test compounds are administered in graded doses. […] However, if an active drug is toxic for the host, its toxicity may become a limiting factor; continued increases in dose levels also increase the toxic effects and may result in the diminution of survival times. Deaths prior to the sixth day, when untreated controls begin to die, are regarded as non-parasitic and become the basis for toxicity evaluations. Treated animals are kept under observation for 60 days. Survivors at the end of this period of time are considered as cured.
# An increase of 100% in mean survival time is considered the minimum effective response for a candidate compound. In calculating mean survival time, toxic deaths and 60 day survivors are not included.
# The antimalarial activity data acquired by the two test procedures described above are listed in Tables 2 and 3 for the compounds of this invention. In Table 4, the most promising compound of the series, compound 1, is compared directly with primaquine together with some additional test data for compound 1 compared to primaquine. In all the work reported herein primaquine is used in the form of the diphosphate salt. The test data are expressed in the form of the number of cures at a given dose level. […]
# [1] = Acute oral toxicity, mice
# Plasmodium cynomolgi = assay: Radical curative (tissue schizonticidal) test, SEATO, P. cynomolgi, rhesus monkey; type: in vivo, Plasmodium cynomolgi (strain B) in Indian rhesus monkeys
# Procedure: Radical Curative Test in Rhesus Monkeys, SEATO Medical Research Laboratory, Bangkok, John Brown/Richard Andre
# This test is designed to evaluate the tissue schizonticidal (radical curative) activity of test compounds. Well-conditioned Indian rhesus monkeys of either sex weighing 2-4 Kg are utilized. Plasmodium cynomolgi (strain B) sporozoites are prepared by grinding heavily infected Anopheles dirus salivary glands in 1:1 monkey serum-saline vehicle.
# Monkeys are infected by I.V. injection of 10^6 freshly isolated P. cynomolgi sporozoites on day 0. A rapidly rising parasitemia develops after a 7-9 day prepatent period, and administration of the test drug is initiated when the rising parasite count exceeds 5000 per mm^3 (typically day 10-12). Test drugs are administered orally (by nasogastric intubation) once daily for 7 consecutive days in aqueous solution or, if insoluble, in suspension in 0.3% methylcellulose solution. Chloroquine diphosphate (3.1 mg/kg base/kg orally per day) is always administered concurrently with the test drug for 7 days to eliminate blood schizonts. Thus any tissue schizonticidal activity of the test drug will always be apparent even if it lacks blood schizonticidal activity.
# A vehicle control monkey and a positive drug control (primaquine) monkey are included in each group of inoculated monkeys.
# The effect of the test drug is determined by counting blood parasites. Parasite counts are made daily through day 20, and every two days thereafter. Initially a clearance of blood parasites is observed due to the blood schizonticidal action of chloroquine. […] If there is no relapse within 20 days of the initial clearance of parasitemia, the monkey is splenectomized and its parasitemia followed for an additional 30 days. If there is no relapse within this period, the experiment is terminated and the monkey is considered "cured".
# Primaquine diphosphate cures over 90% of monkeys in this test system when administered at a dose of 1.3 mg/kg of salt per day for 7 days ([…]) in combination with chloroquine.
# The antimalarial activity data acquired by the two test procedures described above are listed in Tables 2 and 3 for the compounds of this invention. In Table 4, the most promising compound of the series, compound 1, is compared directly with primaquine together with some additional test data for compound 1 compared to primaquine. In all the work reported herein primaquine is used in the form of the diphosphate salt. The test data are expressed in the form of the number of cures at a given dose level. Extension of life (mean survival time) relative to the controls is noted in the Rane mouse test; if the mean survival time is extended seven or more days, the compound is considered to be active.
# The Molar Primaquine Index is useful in the radical curative test (Table II) as a gauge of the efficacy of a candidate drug relative to primaquine.
# [2] = Acute oral toxicity, guinea pigs
# [3] = 0.875 mg/kg base × 1, oral, without chloroquine
# [4] = 1.75 mg/kg base × 1, oral, plus chloroquine
# [5] = 3.5 mg/kg base × 1, oral, without chloroquine
# [6] = 14 mg/kg base × 1, oral, without chloroquine
# [7] = 160 mg/kg × 1, s.c., five mice, Table III
# [8] = 320 mg/kg × 1, s.c., five mice, Table III
# [9] = 640 mg/kg × 1, s.c., five mice, Table III
# [10] = 3.5 mg/kg base × 1, oral, plus chloroquine
# [11] = 7 mg/kg base × 1, oral, plus chloroquine
compound,measurement,setting,value
"COc1cc(NC(C)CCCN)c2nccc(C)c2c1Oc1cccc(C(F)(F)F)c1.O=C(O)CCC(=O)O (centres unmarked) [Compound 1, 8-(4-Amino-1-methylbutylamino)-6-methoxy-4-methyl-5-(3-trifluoromethylphenoxy)quinoline Succinate]",Relapse,"P. cynomolgi; 0.4375 mg/kg base × 1, oral, plus chloroquine",4R
same,Relapse,"P. cynomolgi; 0.4375 mg/kg base × 1, oral, without chloroquine",4R
same,Cure,"P. cynomolgi; 0.875 mg/kg base × 1, oral, plus chloroquine",4C
same,Relapse,P. cynomolgi; [3],1R
same,Suppressive failure,P. cynomolgi; [3],3SF
same,Cure,P. cynomolgi; [4],2C
same,Suppressive failure,"P. cynomolgi; 1.75 mg/kg base × 1, oral, without chloroquine",4SF
same,Cure,P. cynomolgi; [5],1C
same,Suppressive failure,P. cynomolgi; [5],1SF
same,Cure,"P. cynomolgi; 7 mg/kg base × 1, oral, without chloroquine",2C
same,Cure,P. cynomolgi; [6],1C
same,Suppressive failure,P. cynomolgi; [6],1SF
same,Activity at 3.5 mg/kg (×1),P. cynomolgi,equally active
same,Fully curative dose level,P. cynomolgi,0.875 mg/kg
same,Molar Primaquine Index,P. cynomolgi; with chloroquine co-administration,19
same,Extension of survival,"Plasmodium berghei; 5 mg/kg salt, s.c., Table IV A-1",7 days
same,Cures (60 days survival),"Plasmodium berghei; 5 mg/kg × 1, s.c., five mice, Table III",1C
same,Cures (60 days survival),"Plasmodium berghei; 10 mg/kg × 1, s.c., five mice, Table III",3C
same,Cures (60 days survival),"Plasmodium berghei; 20 mg/kg × 1, s.c., five mice, Table III",5C
same,Cures (60 days survival),"Plasmodium berghei; 40 mg/kg × 1, s.c., five mice, Table III",5C
same,Cures (60 days survival),"Plasmodium berghei; 80 mg/kg × 1, s.c., five mice, Table III",5C
same,Cures (60 days survival),Plasmodium berghei; [7],5C
same,Cures (60 days survival),Plasmodium berghei; [8],5C
same,Toxic deaths,"Plasmodium berghei; 640 mg/kg salt, s.c., Table IV A-1",4T
same,Cures (60 days survival),Plasmodium berghei; [9],1C
same,Toxic,Plasmodium berghei; [9],4T
same,minimal effective dose,"Plasmodium berghei; Plasmodium berghei, sc, single dose, read-out: Curative dose, suppressive test",10 mg/kg
same,LD50 ratio Compound 1/Primaquine,"[1]; mice, male",1.59
same,% curative (radical curative),Plasmodium cynomolgi; 0.316 mg/kg/day,100%
same,Radical curative activity relative to primaquine,Plasmodium cynomolgi; in words,markedly superior to primaquine
same,Molar Primaquine Index CD 100,"Plasmodium cynomolgi; primaquine CD100 dose / drug CD100 dose, in moles",4.8
same,LD50 ratio Compound 1/Primaquine,"[2]; guinea pigs, male",3.22
"COc1cc(NC(C)CCCN)c2ncccc2c1 (centres unmarked) [Primaquine Diphosphate, 8-((4-amino-1-methylbutyl)amino)-6-methoxy-quinoline, reference compound]",Relapse,P. cynomolgi; [4],2R
same,Cure,P. cynomolgi; [10],2C
same,Relapse,P. cynomolgi; [10],1R
same,Suppressive failure,P. cynomolgi; [10],1SF
same,Cure,P. cynomolgi; [11],2C
same,Relapse,P. cynomolgi; [11],1R
same,Suppressive failure,P. cynomolgi; [11],1SF
same,Cure,"P. cynomolgi; 14 mg/kg base × 1, oral, plus chloroquine",2C
same,Activity at 3.5 mg/kg (×1),P. cynomolgi,effective although a relapse was observed in one of the four animals
same,Fully curative dose level,P. cynomolgi,14 mg/kg
same,Extension of survival relative to controls,"Plasmodium berghei; 80 mg/kg × 1, s.c., Table III",9 days
same,Extension of survival,"Plasmodium berghei; 160 mg/kg salt, s.c., Table IV A-1",9 days
same,Extension of survival relative to controls,"Plasmodium berghei; 160 mg/kg × 1, s.c., Table III",9 days
same,Suppressive activity (active/inactive),Plasmodium berghei; [7],"A (Active, 7 Days or more estension of survival relative to controls.)"
same,Toxic,Plasmodium berghei; [7],2T
same,Toxic,Plasmodium berghei; [8],5T
same,Toxic,Plasmodium berghei; [9],5T
same,"Cures, Rane mouse test","Plasmodium berghei; all doses, s.c., Table IV A-1",No Cures
same,"Toxicity and curative activity, Rane mouse test",Plasmodium berghei; any dose level,toxic and non-curative at any dose level
same,LD50,"[1]; mouse, in vivo, po",148 mg/kg
same,Radical curative activity,Plasmodium cynomolgi; 0.316 mg/kg/day,inactive
same,"Radical curative test, cures","Plasmodium cynomolgi; 1.0 mg/kg salt, oral, × 7 days, Table IV B-1",1/2
same,Monkeys cured,Plasmodium cynomolgi; 1.3 mg/kg of salt per day for 7 days (1.0 mg/kg free base) with chloroquine,over 90%
same,LD50,"[2]; guinea pig, in vivo, po",54 mg/kg
